# Several values for one entry are separate records, joined by “and”; a condition that tells them apart may be missing. Equal entries are not always repeated. Where two headings read alike, the source gives them in different places.
# How the values were obtained:
# [1] = target: T1, Mcl-1 (Homo sapiens (Human), UniProt Q07820); test: Fluorescence polarization competition assay (FPCA), Mcl-1 / FITC-Bak BH3 peptide; format: binding; settings: for Ki: read-out: Mcl-1 Ki; for Mcl-1 Exp ΔG: ΔG=−RTlnKi from experimental Ki
# Summary of the method: (§1)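 Purified Mcl-1 (affinity tag cleaved, size-exclusion polished) competed against FITC-labeled Bak-BH3 peptide, read by fluorescence polarization. IC50 from Hill-equation fit; Ki derived from IC50 by the Nikolovska-Coleska equation.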
# [2] = target: Bcl-xL (Homo sapiens (Human), UniProt Q07817); test: Fluorescence polarization competition assay, Bcl-xL; format: binding; settings: for Ki: Ki from IC50 by Nikolovska-Coleska equation, NA = no activity, read-out: Bcl-xL Ki; for Bcl-xL Exp ΔG: ΔG from experimental Ki
# Protocol: Fluorescence polarization experiments were conducted using a BMG PHERAstar FS multimode microplate reader equipped with two PMTs for simultaneous measurements of the perpendicular and parallel fluorescence emission. The assays were performed in black polypropylene 384-well microplate (Costar) with a final volume of 20 microliter. […] Regression analysis was carried out using Origin (OriginLab, Northampton, Mass.) to fit the data to the Hill equation (1) to determine the initial binding affinity (KD) and the IC50 in the FPCA. For the fluorescence polarization competition titrations, an equation derived by Nikolovska-Coleska et al. was used to calculate the Ki from the IC50 data.
# [3] = system: HL-60 cell line; test: Cell viability of HL-60 cell line after treating with inhibitors for 24 hrs; format: cell-based, human
# Source text: The moderate cell grow inhibition ability for the two carboxylic acid ester prodrugs 20 and 21 could be attributed to the enzymatic hydrolysis that generated a free acid molecule (13ag) to function as an Mcl-1 inhibitor in the cells.
# [4] = system: SK-MEL-5 melanoma cells; test: Cell proliferation, cell titer blue assay, SK-MEL-5; format: cell-based
# Source text: (§2) Without being limited to any one theory, the poor efficacy in cells may be attributed to the charged carboxylic acid of 3bl.
# [5] = system: A375 melanoma cells; test: Cell proliferation / viability, CellTiter-Blue assay, A375; format: cell-based, human; settings: for IC50: cell titer blue assay, read-out: IC50 inhibition of cell proliferation, A375
# Protocol: as §2
# The moderate cellular activity of ±-2 may, for instance, be due to limited cell penetration owing to the charged carboxylic acid. Thus, the acetoxymethyl ester ±-12 (R1=CH2OCOCH3) was prepared as a neutral prodrug of ±-2.
# [6] = target: T1, Mcl-1; test: 2D 1H-15N HSQC NMR with 15N-labeled Mcl-1; format: binding; settings: 131 μM 15N-Mcl-1, 182 μM compound
# Protocol: NMR spectra was collected at 25° C. with a Bruker AVANCE 800 NMR spectrometer (800.27 MHz for protons) equipped with pulsed-field gradients, four frequency channels, and triple resonance, z-axis gradient cryogenic probes. A one-second relaxation delay was used, and quadrature detection in the indirect dimensions was obtained with states-TPPI phase cycling; initial delays in the indirect dimensions were set to give zero- and first-order phase corrections of 90° and −180°, respectively. Data were processed using the processing program nmrPipe on Linux workstations. All proton chemical shifts are reported with respect to the H2O or HDO signal, taken to be 4.658 ppm relative to external TSP (0.0 ppm) at 37° C. The ^15N chemical shifts were indirectly referenced using the zero-point frequency at 37° C. of 0.10132905 for ^15N—^1H, as previously described.
# All compounds used for NMR were initially suspended in 100% d6-DMSO. The NMR samples contained 131 μM ^15N-labeled Mcl-1, 182 μM compound, 20 mM HEPES, pH 6.8, 50 mM NaCl, 3 mM DTT, 20% D2O, and 5% D6-DMSO.
# [7] = system: Mcl-1; test: Fluorescence polarization competition assay (FPCA), Mcl-1 / FITC-Bak BH3 peptide; format: binding, human; settings: for Selectivity, Ki (Bcl-xL) divided by Ki (Mcl-1): Mcl-1 over Bcl-xL; for Exp. ΔG diff.: between Mcl-1 and Bcl-xL, positive favors Mcl-1
# Summary of the method: as §1
# [8] = FPCA with FITC-Bak, Ki from IC50 by Nikolovska-Coleska equation
# [9] = read-out: HL-60 IC50 0.5% FBS, 0.5% FBS
# [10] = read-out: HL-60 IC50 10% FBS, 10% FBS
# [11] = read-out: IC50 inhibition of cell proliferation, SK-MEL-5
# [12] = CellTiter-Blue assay, read-out: GI50, viability of A375 cells
# Sequence of Bcl-xL (Q07817 whole entry): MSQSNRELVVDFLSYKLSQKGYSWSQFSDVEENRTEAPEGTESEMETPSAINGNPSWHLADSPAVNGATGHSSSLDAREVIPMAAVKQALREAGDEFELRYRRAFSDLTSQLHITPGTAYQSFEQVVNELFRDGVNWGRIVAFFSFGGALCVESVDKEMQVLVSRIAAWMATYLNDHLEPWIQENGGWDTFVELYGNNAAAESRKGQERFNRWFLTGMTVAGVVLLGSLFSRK
# T1 sequence (Q07820 172-327): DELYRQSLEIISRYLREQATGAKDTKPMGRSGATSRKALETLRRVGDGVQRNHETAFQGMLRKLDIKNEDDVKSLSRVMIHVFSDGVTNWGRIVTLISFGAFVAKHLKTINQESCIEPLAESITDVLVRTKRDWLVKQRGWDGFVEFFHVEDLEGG
smiles,measurement,setting,value
Cc1cc(CCCN(Cc2ccccc2)c2ccc(C(=O)O)c(O)c2)cc(C)c1Cl [LC-5-188 35],Ki,[1]; [8],1.45 µM
same,Ki,[2],2.98 ± 0.406 µM
same,IC50,[3]; [9],7.36 µM
same,IC50,[3]; [10],88 µM
COC(=O)c1cc(S(=O)(=O)N(CC(C)C)c2ccc(OC(C)C)cc2)c2ccccc2c1O [Compound 13],Binding affinity to Mcl-1 in vitro,[1]; FPCA,no binding affinity
same,IC50,[4]; [11],~300 µM
same,IC50,[5],~300 µM
COC(=O)c1ccc(N(CC(C)C)S(=O)(=O)c2ccc(Oc3ccccc3)cc2)cc1O [LC-4-131 20],Ki,[1]; [8],> 500 µM
same,IC50,[3]; [9],68.1 µM
same,IC50,[3]; [10],76.4 µM
"CC(C)CN(c1ccc(OC(C)C)cc1)S(=O)(=O)c1cc(C(=O)O)c(O)c2ccccc12 [Compound 3ba, 1-Hydroxy-4-(N-isobutyl-N-(4-isopropoxyphenyl)sulfamoyl)-2-naphthoic Acid]",Ki,[1]; [8],0.487 µM
same,Ki,[2],6.08 ± 0.81 µM
same,Mcl-1 backbone 1H-15N chemical shift perturbation on compound binding,[6],perturbation of the chemical shifts
same,IC50,"[5]; Homo sapiens, A-375",150 µM
Cc1cc(Oc2ccc(S(=O)(=O)N3CC(C(=O)O)Cc4ccccc43)cc2)cc(C)c1Cl (racemic) [±-2],Ki,[1]; [8],0.12 ± 0.053 µM
same,Ki,[1]; FPCA,0.12 µM
same,Mcl-1 backbone 1H-15N chemical shift perturbation on compound binding,[6],significant chemical shift changes
same,GI50,[5]; [12],50 µM
same,GI50,"[5]; read-out: GI50, viability of A375 melanoma cells",50 µM
Cc1cc(Oc2ccc(S(=O)(=O)N(CC(C)C)c3ccc(O)c(C(=O)O)c3)cc2)cc(C)c1Cl [JY-5-304 18bd],Ki,[1]; [8],0.586 ± 0.041 µM
same,Ki,[1]; FPCA,0.586 µM
same,Ki,[2],2.91 ± 0.191 µM
same,IC50,[3]; [9],9.82 µM
same,IC50,[3]; [10],> 120 µM
CC(=O)OCOC(=O)C1Cc2ccccc2N(S(=O)(=O)c2ccc(Oc3cc(C)c(Cl)c(C)c3)cc2)C1 (racemic) [±-12],Ki,[1]; FPC assay,> 500 µM
same,Ki,[1]; [8],> 500 µM
same,GI50,[5]; [12],73 µM
CC(=O)OCOC(=O)c1cc(S(=O)(=O)N(CC(C)C)c2ccc(OC(C)C)cc2)c2ccccc2c1O [Compound 14],Binding affinity to Mcl-1 in vitro,[1]; FPCA,no binding affinity
same,IC50,[4]; [11],15 µM
same,IC50,[5],15 µM
"Cc1cc(Oc2ccc(N(Cc3ccccc3)S(=O)(=O)c3cc(C(=O)O)c(O)c4ccccc34)cc2)cc(C)c1Cl [Compound 3bl, 4-(N-Benzyl-N-(4-(4-chloro-3,5-dimethylphenoxy)phenyl)sulfamoyl)-1-hydroxy-2-naphthoic Acid]",Ki,[1]; FPCA,0.031 µM
same,Ki,[2],0.34 ± 0.13 µM
same,IC50,"[4]; Homo sapiens, SK-MEL-5, read-out: IC50 inhibition of cell proliferation, SK-MEL-5",90 µM
same,IC50,"[5]; Homo sapiens, A-375",50 µM
Cc1cc(Oc2ccc(S(=O)(=O)N(CC(C)C)c3ccc(C(=O)O)c(O)c3)cc2)cc(C)c1Cl [4jc117-5 13ak],Ki,[1]; [8],0.778 ± 0.05 µM
same,Ki,[1]; FPCA,0.778 µM
same,Ki,[2],1.63 ± 0.177 µM
same,Mcl-1 backbone 1H-15N chemical shift perturbation on compound binding,[6],R263 and T266 were both perturbed
CC(=O)OCOC(=O)c1ccc(N(CC(C)C)S(=O)(=O)c2ccc(Oc3ccccc3)cc2)cc1O [LC-4-141 21],IC50,[3]; [9],46.4 µM
same,IC50,[3]; [10],> 120 µM
Cc1cc(Oc2ccc(S(=O)(=O)N(Cc3ccccc3)c3ccc(C(=O)NS(=O)(=O)c4ccc(NCC5CCOCC5)c([N+](=O)[O-])c4)c(O)c3)cc2)cc(C)c1Cl [LC-5-131 31],Ki,[1]; [8],0.8 ± 0.07 µM
same,Ki,[1]; FPCA,0.8 µM
same,Ki,[2],1.61 ± 0.176 µM
same,IC50,[3]; [9],9.96 µM
same,IC50,[3]; [10],> 120 µM
"O=C(O)c1cc(S(=O)(=O)Nc2ccc(Oc3cccc(Br)c3)cc2)c2ccccc2c1O [Compound 3be, 4-(N-(4-(3-Bromophenoxy)phenyl)sulfamoyl)-1-hydroxy-2-naphthoic Acid]","Selectivity, Ki (Bcl-xL) divided by Ki (Mcl-1)",[7],3.8
same,Ki,[1]; [8],0.114 µM
same,Ki,[2],0.3 ± 0.04 µM
"Cc1cc(Oc2ccc(N(CC(C)C)S(=O)(=O)c3cc(C(=O)O)c(O)c4ccccc34)cc2)cc(C)c1Cl [Compound 3bj, 4-(N-(4-(4-Chloro-3,5-dimethylphenoxy)phenyl)-N-isobutylsulfamoyl)-1-hydroxy-2-naphthoic Acid]","Selectivity, Ki (Bcl-xL) divided by Ki (Mcl-1)",[7],2.1
same,Ki,[1]; [8],0.08 ± 0.019 µM
same,Ki,[2],0.17 ± 0.06 µM
O=C(O)c1cc(S(=O)(=O)Nc2cccc3ccccc23)c2ccccc2c1O [3p; EW-2-056],Exp. ΔG diff.,[7],1.35 kcal/mol
same,Mcl-1 Exp ΔG,[1],-6.75 kcal/mol
same,Bcl-xL Exp ΔG,[2],-5.40 kcal/mol
"Cc1cc(Oc2ccc(NS(=O)(=O)c3cc(C(=O)O)c(O)c4ccccc34)cc2)cc(C)c1Cl [Compound 3bi, 4-(N-(4-(4-Chloro-3,5-dimethylphenoxy)phenyl)sulfamoyl)-1-hydroxy-2-naphthoic Acid]","Selectivity, Ki (Bcl-xL) divided by Ki (Mcl-1)",[7],4.1
same,Ki,[1]; [8],0.117 ± 0.06 µM
same,Ki,[2],0.48 ± 0.05 µM
Cc1cc(C)cc(Oc2ccc(NS(=O)(=O)c3cc(C(=O)O)c(O)c4ccccc34)cc2)c1 [3bf; SF-5-306],Exp. ΔG diff.,[7],0.19 kcal/mol
same,Mcl-1 Exp ΔG,[1],-8.93 kcal/mol
same,Bcl-xL Exp ΔG,[2],-8.74 kcal/mol
"O=C(O)c1cc(S(=O)(=O)Nc2ccc([N+](=O)[O-])cc2)c2ccccc2c1O [Compound 3ac, 1-Hydroxy-4-(N-(4-nitrophenyl)sulfamoyl)-2-naphthoic Acid]","Selectivity, Ki (Bcl-xL) divided by Ki (Mcl-1)",[7],5.2
same,Ki,[1]; [8],4.49 ± 1.2 µM
same,Ki,[2],23.3 ± 2.5 µM
O=C(O)c1cc(S(=O)(=O)Nc2ccccc2C(F)(F)F)c2ccccc2c1O [3u; TA-1-017],Exp. ΔG diff.,[7],0.92 kcal/mol
same,Mcl-1 Exp ΔG,[1],-7.35 kcal/mol
same,Bcl-xL Exp ΔG,[2],-6.43 kcal/mol
"COc1ccc(NS(=O)(=O)c2cc(C(=O)O)c(O)c3ccccc23)cc1 [Compound 3z, 1-Hydroxy-4-(N-(4-methoxyphenyl)sulfamoyl)-2-naphthoic Acid]","Selectivity, Ki (Bcl-xL) divided by Ki (Mcl-1)",[7],6
same,Ki,[1]; [8],11.9 ± 2.5 µM
same,Ki,[2],71.9 ± 21 µM
O=C(O)c1cc(S(=O)(=O)NCc2ccc(Cl)cc2)c2ccccc2c1O [3f; SF-5-264],Exp. ΔG diff.,[7],1.65 kcal/mol
same,Mcl-1 Exp ΔG,[1],-6.38 kcal/mol
same,Bcl-xL Exp ΔG,[2],-4.73 kcal/mol
Cc1cc(Oc2ccc(S(=O)(=O)N(Cc3ccccc3)c3ccc(C(=O)O)c(O)c3)cc2)cc(C)c1Cl [LC-4-118 13cc],Ki,[1]; [8],0.659 µM and 0.629 µM
same,Ki,[2],1.67 ± 0.351 µM
same,IC50,[3]; [9],< 7.5 µM
same,IC50,[3]; [10],53.2 µM
CC(C)CN(c1ccc(C(=O)O)c(O)c1)S(=O)(=O)c1ccc(Oc2ccccc2)cc1 [LC-4-099 13ag],Ki,[1]; [8],5.77 µM and 5.8 µM
same,Ki,[2],18 ± 4.6 µM
same,IC50,[3]; [9],18.5 µM
same,IC50,[3]; [10],> 120 µM
"O=C(O)c1cc(S(=O)(=O)Nc2ccc3ccccc3c2)c2ccccc2c1O [Compound 3q, 1-Hydroxy-4-(N-(naphthalen-2-yl)sulfamoyl)-2-naphthoic Acid]","Selectivity, Ki (Bcl-xL) divided by Ki (Mcl-1)",[7],15
same,Ki,[1]; [8],4.58 ± 1.56 µM
same,Ki,[2],68.5 ± 36.3 µM
O=C(O)c1cc(S(=O)(=O)Nc2ccc(Oc3cccc4ccccc34)cc2)c2ccccc2c1O [3bd; SF-5-300],Exp. ΔG diff.,[7],0.58 kcal/mol
same,Mcl-1 Exp ΔG,[1],-9.66 kcal/mol
same,Bcl-xL Exp ΔG,[2],-9.08 kcal/mol

# From patent US10858316B2, “Small molecule inhibitors of the MCL-1 oncoprotein and uses thereof” (University of Maryland, Baltimore, priority 2015, dated 2020)
